Results: US20110182982A1, “LIPOSOME TREATMENT OF VIRAL INFECTIONS” (University of Oxford, priority 2006, published 2011)
Where two headings read alike, the source gives them in different places.

Legend:
[1] = pH sensitivity of DCPP liposomes (calcein leakage); type: physicochemical; settings: 1 mM encapsulated, pH 5.0-7.4, vs calcein only liposomes
Method: DCPP liposomes encapsulating 1-mM DNJ, NB-DNJ, or NN-DNJ in 80-mM calcein buffer were compared with empty (calcein only) liposomes to determine the effects of the alkyl chain of NB-DNJ and NN-DNJ on the pH-sensitivity. 10 μl of calcein-loaded DCPP liposomes (final phospholipid concentration, 5 μM) was added to 2 ml of MES-buffered saline at various pH values ranging from 5.0-7.4, and left to incubate with shaking 15 min at 37° C. Following incubation, calcein fluorescence was measured before and after the addition of Triton to a final concentration of 0.1%. Fluorescence intensities obtained at acidic pH values were corrected for the slight effect of pH on calcein fluorescence. The percentage of calcein release at each pH was calculated using the formula: % leakage=((in−I0)/(I100−I0))×100, where I0 is the fluorescence at neutral pH, In is the corrected intensity at acidic pH before the addition of Triton, and I100 is the total dequenched calcein at neutral pH.

ncp BVDV = assay: Infectivity of secreted ncp BVDV on naive MDBK cells, immunofluorescence; type: cell-based, bovine viral diarrhea virus
Method: Using BVDV viral particles collected from the previous experiment (500 μl of supernatant containing secreted BVDV), the infectivity of secreted NB-DNJ-treated BVDV was determined by incubation with naïve MDBK cells for 3 days followed by immunofluorescent staining to identify BVDV proteins in infected cells. Cells were stained post-infection using an anti-BVDV NS2-NS3 monoclonal antibody, followed by a FITC-labelled secondary antibody. Experiments were performed in duplicate using 6-well plates. The percent viral infectivity was calculated by the number of infected cells, identified by the presence of non-structural BVDV proteins, divided by the total cell count determined by DAPI staining of cell nuclei. Results were also normalized to account for decreased or increased viral titres in each sample (results from BVDV secretion experiments).

cp BVDV = assay: Yield reduction (plaque) assay; type: cell-based, bovine viral diarrhea virus; settings: for IC50: Bovine viral diarrhea virus isolates and strains, read-out: IC50, secretion of infectious BVDV
Method: The antiviral effect of liposome-included NB-DNJ was also tested against the cp BVDV, using the yield reduction assay, a method which takes advantage of the cp strain being able to form plaques on monolayers of infected cells.
FIG. 7 represents the effect of free vs. DC liposome-encapsulated NB-DNJ, on secretion of infectious cp BVDV. MDBK cells infected with cp BVDV were treated for 3 days with either free or DC liposome-NB-DNJ, so that the final NB-DNJ concentrations ranged between 0 and 500 μM and the total lipid concentration was 100 μM. The supernatants were then removed and used to infect fresh MDBK monolayers in six-well plates. After 3 days the plaques were counted under the microscope (plaque assay) and the results were expressed as a percentage of the number of plaques resulting from infection with no drug supernatant (=100%) (x axis). The y axis indicates the free or DC liposome-included NB-DNJ concentrations used in the plaque assay. The IC50 is indicated at the bottom of the graph.

ER glucosidases I and II = assay: Free oligosaccharide (FOS) analysis as marker of glucosidase inhibition; type: cell-based, Chinese hamster
Source text: Free oligosaccharides (FOS) produced in the presence of free or DCPP liposomes encapsulating NB-DNJ are characterized and used as a cellular marker for glucosidase inhibition to measure the enhancement of drug activity due to intracellular delivery. […] In this experiment, the distribution of glucosylated FOS is used as a measure of glucosidase inhibition by NB-DNJ, where Glc1Mann-FOS and Glc2Mann-FOS species are a result of glucosidase II inhibition, and Glc3Mann-FOS a result of glucosidase I inhibition.
CHO cells were incubated in the presence of free NB-DNJ at the antiviral concentration of 0.5 mM, or with 100 μM of DCPP liposomes encapsulating NB-DNJ at final concentrations ranging 0-75 nM. Cells were left to incubate for 5 days and isolation of FOS was performed using cell homogenates standardized to 500 μg of total protein as described by Mellor et al (2004). Biochem J. 2004 Aug. 1; 381 (Pt 3): 861-866. Detection of FOS was performed by normal-phase HPLC following labeling of oligosaccharides by 2-aminobenzamide. The compositions of FOS were further characterized and determined by digestions with glycosidases including endoglycosidase H, jack bean α-mannosidase, and α-glucosidases I and II. The percentage of non-glucosylated and glucosylated oligomannose FOS (represented by Mann-FOS, Glc1Mann-FOS, Glc2Mann-FOS, and Glc3Mann-FOS) was calculated for each sample, and results are represented in Table 2. Results represent the mean±S.D. of four separate experiments.

With `CCCCN1C[C@H](O)[C@@H](O)[C@H](O)[C@H]1CO` [NB-DNJ, N-butyl-1,5-dideoxy-1,5-imino-D-glucitol] the “pH sensitivity / stability of DCPP liposomes” value [1] was “significant decrease in pH sensitivity”, the “effect on BVDV infectivity” value (ncp BVDV; 750 nM added freely to the medium) was “little to no effect” and the “naive MDBK cells infected by viral progeny” value (ncp BVDV; 750 nM delivered via DCPP liposomes) was “less than 1%”. The “antiviral effect vs controls” value (ncp BVDV; 750 nM in DCPP liposomes) was “over 20 fold”, the “naive MDBK cells infected by viral progeny” value (ncp BVDV; free, up to 750 nM) was “approximately 20%” and the “better inhibition, DC liposomes vs free” value (cp BVDV) was 8 fold. The IC50 (cp BVDV; free drug) was 175 µM, the IC50 (cp BVDV; included in DC liposomes, total lipid 100 μM) was 20 µM and the “Distribution of total FOS Glc0Mann” value (ER glucosidases I and II; 0.75 pM in liposomes) was 70.7 ± 5.4%. For the same compound, the “Distribution of total FOS Glc1Mann” value (ER glucosidases I and II; 0.75 pM in liposomes) was 18.7 ± 3.7%, the “Distribution of total FOS Glc2Mann” value (ER glucosidases I and II; 0.75 pM in liposomes) was 7.7 ± 1.1% and the “Distribution of total FOS Glc3Mann” value (ER glucosidases I and II; 0.75 pM in liposomes) was 2.9 ± 0.9%. For the same compound, the “Distribution of total FOS Glc0Mann” value (ER glucosidases I and II; 7.5 pM in liposomes) was 70.4 ± 4.2%, the “Distribution of total FOS Glc1Mann” value (ER glucosidases I and II; 7.5 pM in liposomes) was 17.7 ± 1.3% and the “Distribution of total FOS Glc2Mann” value (ER glucosidases I and II; 7.5 pM in liposomes) was 8.3 ± 2.1%. The “Distribution of total FOS Glc3Mann” value (ER glucosidases I and II; 7.5 pM in liposomes) was 3.6 ± 1.3%, the “Distribution of total FOS Glc0Mann” value (ER glucosidases I and II; 75 pM in liposomes) was 51.7 ± 4.7% and the “Distribution of total FOS Glc1Mann” value (ER glucosidases I and II; 75 pM in liposomes) was 38.6 ± 4.1%. For the same compound, the “Distribution of total FOS Glc2Mann” value (ER glucosidases I and II; 75 pM in liposomes) was 5.3 ± 1.8%, the “Distribution of total FOS Glc3Mann” value (ER glucosidases I and II; 75 pM in liposomes) was 4.4 ± 2.8% and the “Distribution of total FOS Glc0Mann” value (ER glucosidases I and II; 0.75 nM in liposomes) was 20.4 ± 2.7%. The “Distribution of total FOS Glc1Mann” value (ER glucosidases I and II; 0.75 nM in liposomes) was 66.9 ± 5.1%, the “Distribution of total FOS Glc2Mann” value (ER glucosidases I and II; 0.75 nM in liposomes) was 7.4 ± 3.3% and the “Distribution of total FOS Glc3Mann” value (ER glucosidases I and II; 0.75 nM in liposomes) was 5.3 ± 2.9%. For the same compound, the “Distribution of total FOS Glc0Mann” value (ER glucosidases I and II; 7.5 nM in liposomes) was 12.7 ± 2.6%, the “Distribution of total FOS Glc1Mann” value (ER glucosidases I and II; 7.5 nM in liposomes) was 50.0 ± 4.8% and the “Distribution of total FOS Glc2Mann” value (ER glucosidases I and II; 7.5 nM in liposomes) was 28.6 ± 2.7%. For the same compound, the “Distribution of total FOS Glc3Mann” value (ER glucosidases I and II; 7.5 nM in liposomes) was 8.7 ± 1.7%, the “Distribution of total FOS Glc0Mann” value (ER glucosidases I and II; 75 nM in liposomes) was 13.2 ± 4.1% and the “Distribution of total FOS Glc1Mann” value (ER glucosidases I and II; 75 nM in liposomes) was 7.9 ± 2.8%. For the same compound, the “Distribution of total FOS Glc2Mann” value (ER glucosidases I and II; 75 nM in liposomes) was 26.6 ± 4.5%, the “Distribution of total FOS Glc3Mann” value (ER glucosidases I and II; 75 nM in liposomes) was 52.3 ± 6.2% and the “Distribution of total FOS Glc0Mann” value (ER glucosidases I and II; 0.5 mM free) was 11.9 ± 1.9%. The “Distribution of total FOS Glc1Mann” value (ER glucosidases I and II; 0.5 mM free) was 9.5 ± 0.9%, the “Distribution of total FOS Glc2Mann” value (ER glucosidases I and II; 0.5 mM free) was 31.7 ± 4.5% and the “Distribution of total FOS Glc3Mann” value (ER glucosidases I and II; 0.5 mM free) was 46.9 ± 4.8%.
